The values that follow come from patent US9233061B2 (AMOREPACIFIC CORPORATION, priority 2011, dated 2016).

The nature of the series: Precipitation of caffeine at low temperature (4° C.). The format is physicochemical. To be noted: 3 days in a refrigerator (4° C.).

In the case of `NC(=O)c1cccnc1` [niacinamide, Niacinamide], the “Amount of niacinamide necessary for inhibiting precipitation” value (“Amount … for inhibiting precipitation” below) (caffeine content 1-3%) is listed as 0.5-1 time based on caffeine, the “Amount … for inhibiting precipitation” value (caffeine content 3-5%) is 1-1.5 times based on caffeine and the “Amount … for inhibiting precipitation” value (caffeine content 5-10%) is 1-2 times based on caffeine.
